# Values quoted from earlier work in patent US20160310552A1, “NORTHERN WHITE KIDNEY BEAN EXTRACT AND CERATONIA SILIQUA EXTRACT IN COMBINATION WITH GREEN TEA EXTRACT IN THE TREATMENT OF EXCESS WEIGHT AND OBESITY” (priority 2015, published 2016).
# Tests used:
# [1] = during a 12 month period
# [2] = preliminary data; 10% with placebo
smiles,measurement,setting,value
CC(C)CC(N(C)C)C1(c2ccc(Cl)cc2)CCC1 (centres unmarked) [sibutramine],Weight loss,[1],5-10%
same,"Subjects who died or had a heart attack, a stroke or cardiac arrest",[2],11.4%
